Reference: US11213512B2, “Bis-amino acid based compound and use thereof” (THE CURATORS OF THE UNIVERSITY OF MISSOURI, priority 2016, dated 2022)

Columns and labels:
Tet^R E. coli = assay: Recovery of tetracycline activity (co-administration, MIC of tetracycline); type: cell-based, Escherichia coli
Experimental: MIC experiments were performed as described in the Clinical and Laboratory Standards Institute (CLSI) standard microdilution protocols. Bacteria was grown overnight from one CFU in media without antibiotics. Tet^R E. coli was grown in media containing 100 μg/mL Ampicillin. On the day of experiment, bacteria were knocked back to O.D. 600 nm=0.550 in the same media. These exponential phase bacteria were then diluted in antibiotics-free media to get […]. In a 96-well plate either L. B. Miller or MHII media was added followed by serially diluted compounds 1-11, tetracycline, or ampicillin. All the tryptophan based compounds were dissolved in DMSO and the final concentration of DMSO in each well was kept constant at 0.5% (v/v).
For the combination experiments, first, the BT or control was added to the media in the well followed by the antibiotics. The contents of the well were mixed before adding 20 μL of bacteria to get 4×10^5 CFU/mL per well. The plates were incubated at 37° C., 200 RPM for 24 hours before collecting results on the Biotek Cytation 3 plate reader. No more than three plates were stacked on top of each other at a time. Optical density of the wells was determined at λ=600 nm. Cells alone were considered as 0% inhibition and media alone was considered as 100% inhibition. Any inhibition greater than 80% was considered as the MIC. The results were reproduced three times before reporting.
First, MICs were determined for compounds 2, 3, 5, 6, 7, and 10 against Tet^R E. coli. Compounds 6 (para-Ph) and 7 (n-C3) were also included as controls. The MICs against Tet^R E. coli were refined compared to the power series and are reported as a range in Table 1 above. The MICs of tetracycline and ampicillin against Tet^R E. coli were 900±100 μM and >1000 μM, respectively. For comparison, the MIC for tetracycline against non-resistant E. coli K-12 is ˜3 μM. Ampicillin was used to maintain selective pressure for the expression of pBR322 plasmid. Ampicillin was omitted from experiments that contained tetracycline. Next, the MIC of tetracycline was determined when co-administered with 2, 3, 5, 6, 7, or 10. The results are represented as the MIC of tetracycline in the presence of the indicated BTs. The fold-recovery was determined by dividing the MIC of tetracycline when used alone by the MIC of tetracycline determined in the presence of the compounds.
The fractional inhibitory concentration (FIC) is often used as a measure of synergism or antagonism in comparing two or more compounds (Berenbaum, Pharmacol. Rev. 1989, 41, 93-141). The FIC is the sum of the fraction of the MIC for each compound used. Synergy is defined broadly as FIC<1, or more conservatively as FIC≤0.5. Under the broad definition, all compounds tested can be said to have at least moderate synergy with tetracycline. All arene-based compounds fit the more conservative definition of synergy with FIC values of 0.5 or less at the tested concentrations.

HEK-293 cells = assay: Cytotoxicity to mammalian cells, XTT assay; type: cell-based, human; conditions: 24 h; for cytotoxicity to HEK-293 (in words): at MIC against Tet^R E. coli (2: 48, 7: 128, 10: 10 μM); for survival of HEK-293 (in words): two-fold increase over MIC concentration
Experimental: (§1) It was initially hypothesized that antimicrobial activity resulted from membrane disruption. Membrane active compounds are often cytotoxic to mammalian cells (Shai, Biopolymers 2002, 66, 236-48; Shai, et al., Curr. Protein Pept. Sci. 2006, 7, 479-86). The survival of three mammalian epithelial cell lines was assayed for 2, 3, 5, and 10. […] The cell lines studied were human embryonic kidney (HEK-293), human cervix epithelial (HeLa, ATCC Accession No. CCL-2), and Cercopithecus aethiops kidney (Cos-7, ATCC Accession No. CRL 1651). HeLa cells were acquired from ATCC. Cos-7 and HEK-293 cells were donated by colleagues. Cell lines were regularly maintained in growth media containing DMEM (ATCC), 10% fetal bovine serum (FBS, ATCC) and 1% penicillin-streptomycin solution (ATCC). Adherent HEK-293, HeLa and Cos-7 cells were trypsinized using 0.25% (w/v) trypsin-EDTA (Sigma-Aldrich), suspended in a fresh media and diluted to get a concentration of 3×10^5 cells/ml. Cells were seeded in a 96-well plate (100 μL/well) to get 3×10^4 cells/well. The plates were incubated for 24 hours at 5% CO2 and 37° C. to reach a confluency of 80-90%.
(§2) In a sterile 1.5 mL micro-centrifuge tube, compounds 2, 3, 5, 6, 7 and 10 (0.5% DMSO) were mixed with assay media (DMEM+10% FBS) and serially diluted by 2-fold each to get 2[MIC], [MIC], ½[MIC] and ¼ [MIC] concentrations. A control containing 0.5% DMSO was also prepared. After 24 hours, the spent media in the 96-well plate containing HEK-293, HeLa and Cos-7 cells (90% confluency) was replaced with 100 μL media containing the compounds 2, 3, 5, 6, 7 and 10 at various concentrations. The cells were incubated at 37° C. and 5% CO2 for 24 hours before performing XTT assay (Sigma-Aldrich). The XTT assay was performed according to the manufacturer's protocol. After 24 hours of treatment with compounds, the media was replaced with PBS and 25 μL XTT was added to each well. The XTT assay works by the reduction of tetrazolium compound by alive cells to the colored soluble formazan product. The absorbance of the product was measured at 450 nm (XTT) and 690 nm (background). Percent survival was calculated by comparing the average absorbance of cells treated with compounds 2, 3, 5, 6, 7, and 10 to that of cells alone. Two replicates for each treatment were determined. Average percent survival and standard deviation were calculated.
(§3) Cells were cultured for 24 h in 96-well plates and treated with media containing concentrations using [MIC] and [MIC]×2 determined previously for Tet^R E. coli. The number of surviving cells was determined using an XTT assay (Sigma-Aldrich); the results are represented as percent survival in FIG. 2. Cells alone were used as controls and established 100% survival. The data represent two replicates of three trials and the error bars represent the standard deviation.

HeLa cells = assay: Cytotoxicity to mammalian cells, XTT assay; type: cell-based, human; conditions: 24 h; for cytotoxicity to HeLa (in words): at MIC against Tet^R E. coli (2: 48, 7: 128, 10: 10 μM); for survival of HeLa (in words): two-fold increase over MIC concentration
Experimental: as §1, §2, §3

[1] = compound at 14 μM (single comparison concentration)
[2] = compound at ¼ MIC (2: 12, 3: 7, 5: 14, 6: 30, 7: 30, 10: 2.5 μM)
[3] = compound at ¼ MIC (2: 12, 3: 7, 5: 14, 6: 30, 7: 30, 10: 2.5 μM), tetracycline alone 900 μM
[4] = compound at ½ MIC (2: 24, 3: 14, 5: 28, 6: 60, 7: 60, 10: 5 μM)
[5] = compound at ½ MIC (2: 24, 3: 14, 5: 28, 6: 60, 7: 60, 10: 5 μM), tetracycline alone 900 μM
[6] = at MIC against Tet^R E. coli (2: 48, 3: 28, 5: 56, 6: 120, 7: 128, 10: 10 μM)
[7] = at twice the MIC (FIG. 3 legend: 2: 96, 3: 56, 5: 112, 6: 240, 7: 256, 10: 20 μM)
[8] = compound at 5 μM (single comparison concentration)

Row | Structure (SMILES) | FIC (fractional inhibitory concentration) with tetracycline (Tet^R E. coli; [1]) | Fold Recovery of tetracycline activity (Tet^R E. coli; [1]) | MIC [Tet] (tetracycline in the presence of the compound) (Tet^R E. coli; [1]) [µM] | FIC (fractional inhibitory concentration) with tetracycline (Tet^R E. coli; [2]) | MIC [Tet] (tetracycline in the presence of the compound) (Tet^R E. coli; [2]) [µM] | Fold Recovery of tetracycline activity (Tet^R E. coli; [3]) | FIC (fractional inhibitory concentration) with tetracycline (Tet^R E. coli; [4]) | MIC [Tet] (tetracycline in the presence of the compound) (Tet^R E. coli; [4]) [µM] | Fold Recovery of tetracycline activity (Tet^R E. coli; [5]) | percent survival HEK-293 (HEK-293 cells; [6]) [%] | cytotoxicity to HEK-293 (in words) (HEK-293 cells) | survival of HEK-293 (in words) (HEK-293 cells) | percent survival HeLa (HeLa cells; [6]) [%] | cytotoxicity to HeLa (in words) (HeLa cells) | survival of HeLa (in words) (HeLa cells) | melting point | percent survival HEK-293 (HEK-293 cells; [7]) [%] | percent survival HeLa (HeLa cells; [7]) [%] | also measured
1 | Cl.Cl.N[C@@H](Cc1c[nH]c2ccccc12)C(=O)Nc1cccc(NC(=O)[C@@H](N)Cc2c[nH]c3ccccc23)c1 [Compound 2, (2S,2′S)-1,1′-(1,3-Phenylenebis(azanediyl))bis(3-(1H-indol-3-yl)-1-oxopropan-2-aminium) chloride] | 0.42 | 8-fold | 112.5 | 0.38 | 112.5 | 8-fold | 0.56 | 56.25 | 16-fold | 100 | no cytotoxicity | unaffected | 100 | no cytotoxicity | unaffected | 223 °C (dec.) | – | – | –
2 | Cl.Cl.N[C@H](Cc1c[nH]c2ccccc12)C(=O)Nc1cccc(NC(=O)[C@H](N)Cc2c[nH]c3ccccc23)c1 [Compound 3, (2R,2′R)-1,1′-(1,3-Phenylenebis(azanediyl))bis(3-(1H-indol-3-yl)-1-oxopropan-2-aminium) chloride] | – | – | – | 0.50 | 225 | 4-fold | 0.63 | 112.5 | 8-fold | 100 | – | – | 100 | – | – | 242 °C (dec.) | 62 | 29 | –
3 | Cl.Cl.N[C@@H](Cc1c[nH]c2ccccc12)C(=O)Nc1ccccc1NC(=O)[C@@H](N)Cc1c[nH]c2ccccc12 [Compound 5, (2S,2′S)-1,1′-(1,2-Phenylenebis(azanediyl))bis(3-(1H-indol-3-yl)-1-oxopropan-2-aminium) chloride] | – | – | – | 0.50 | 225 | 4-fold | 0.63 | 112.5 | 8-fold | 100 | – | unaffected | 100 | – | unaffected | 201 °C (dec.) | – | – | –
4 | Cl.Cl.N[C@@H](Cc1c[nH]c2ccccc12)C(=O)Nc1ccc(NC(=O)[C@@H](N)Cc2c[nH]c3ccccc23)cc1 [Compound 6, (2S,2′S)-1,1′-(1,4-Phenylenebis(azanediyl))bis(3-(1H-indol-3-yl)-1-oxopropan-2-aminium) chloride] | 0.62 | 2-fold | 450 | 0.50 | 225 | 4-fold | 0.63 | 112.5 | 8-fold | 100 | – | – | 100 | – | – | 237 °C (dec.) | 61 | 29 | –
5 | Cl.Cl.N[C@@H](Cc1c[nH]c2ccccc12)C(=O)NCCCNC(=O)[C@@H](N)Cc1c[nH]c2ccccc12 [Compound 7, (2S,2′S)-1,1′-(Propane-1,3-diylbis(azanediyl))bis(3-(1H-indol-3-yl)-1-oxopropan-2-aminium) chloride] | – | – | – | 0.38 | 112.5 | 8-fold | 0.63 | 112.5 | 8-fold | – | minimally toxic | – | – | moderately toxic | – | 234 °C (dec.) | – | – | FIC (fractional inhibitory concentration) with tetracycline (Tet^R E. coli; [8]): 0.54; Fold Recovery of tetracycline activity (Tet^R E. coli; [8]): 2-fold; MIC [Tet] (tetracycline in the presence of the compound) (Tet^R E. coli; [8]): 450 µM
6 | Cl.Cl.N[C@H](Cc1c[nH]c2ccccc12)C(=O)NCCCCCCCCCCCCNC(=O)[C@@H](N)Cc1c[nH]c2ccccc12 [Compound 10, (S)-1-((12-((R)-2-Ammonio-3-(1H-indol-3-yl)propanamido)dodecyl)amino)-3-(1H-indol-3-yl)-1-oxopropan-2-aminium chloride] | – | – | – | 0.75 | 450 | 2-fold | 0.75 | 225 | 4-fold | – | minimally toxic | – | – | moderately toxic | – | 158 °C (dec.) | – | – | FIC (synergy with tetracycline) (Tet^R E. coli; at the tested concentrations, synergy FIC<1 (broad) or FIC≤0.5 (conservative)): ≥ 0.75; recovery of tetracycline activity (Tet^R E. coli; compound at ½ and ¼ of its MIC): 2 to 4 fold
